Values quoted from earlier work in patent US5837715A, “3-fluoro-4-aminopiperidine derivatives as 5-HT receptor agonists” (Merck Sharp & Dohme Ltd., priority 1997, dated 1998).

Experiments:
[1] = test system: human 5-HT1D.sbsb.α and 5-HT1D.sbsb.β receptor subtypes; conditions: cf. WO-A-91/17174, Table 1
[2] = humans, therapeutic doses

**Q.** With `CNS(=O)(=O)Cc1ccc2[nH]cc(CCN(C)C)c2c1` [sumatriptan] as the molecule, how does the “discrimination between the human 5-HT1D.sbsb.α and 5-HT1D.sbsb.β receptor subtypes” value [1] read?
**A.** The value was “barely discriminates”.

**Q.** What about the adverse cardiovascular events [2] of the same molecule?
**A.** The adverse cardiovascular events was “certain adverse cardiovascular events”.
